According to US12226410B2, “Methods for enhancing cellular clearance of pathological molecules via activation of the cellular protein ykt6” (NORTHWESTERN UNIVERSITY, priority 2019, dated 2025):

System: H4 a-syn cells
Test: Immunofluorescence of GCase and LAMP2A in FTI-treated H4 a-syn cells
Format: cell-based, human
Settings: 5 nM FTI
Method: FIGS. 5A, 5B, 5C, 5D, 5E, 5F, and 5G. Reducing farnesyl-ykt6 enhances SNARE assembly and improves the lysosomal targeting of GCase. 5A) Ykt6 membrane shift analysis of SH-SY5Y cells expressing GFP-ykt6 wt or CS (n=3). 5B) Co-IP of GFP-ykt6 and bet1 in A53T iPSn (n=3). 5C) Ykt6 membrane shift analysis in FTI-treated SH-SY5Y wt a-syn cells or A53T iPSn (5 nM farnesyltransferase inhibitors (FTI) LNK-754 (FTI-1) or LNK-3248 (FTI-2) for 5 days) (n=4). Sec22b was measured to assess specificity. 5D) SEC/western blot of FTI-1 treated SH-SY5Y cells. Quantification is shown below. […]
FIGS. 14A, 14B, 14C, 14D, 14E, 14F, and 14G. […] 14A) Farnesylation of ykt6 was measured in SH-SY5Y cells expressing GFP-ykt6. […] Biotin was detected with streptavidin-conjugated IRDye800, and normalized to total levels of GFP-ykt6. […] Ykt6 complex levels eluting at ca. 120A were quantified on the right (n=2). […] 14E) Raw quantification data of LAMP2A immunofluorescence intensity of individual cells from H4 cells treated with FTI, +/−ykt6 KD. […] For all quantifications, values are the mean+/−SEM, *p<0.05.
For GCase/LAMP2 colocalization, cultures were fixed in 4% PFA in PBS for 20 minutes, then permeabilized in 0.2% saponin in 0.2% glycine buffer as described previously (Mazzulli et al., 2016b). […] Cells were mounted in DAPI-Fluoromount G (Southern Biotech) and analyzed by confocal microscopy as above. […]

## C#Cc1cccc(-c2cc(=O)n(C)c3ccc([C@](O)(c4ccc(Cl)cc4)c4cncn4C)cc23)c1 [LNK-754]
  levels of LAMP2A and GCase by immunostaining: elevated the levels of LAMP2A and GCase
